From patent publication US20120202825A1, “Soluble Salts of Thieno [2,3-d] Pyrimidine Derivatives” (priority 2011, published 2012)

Key:
[1] = Storage at 40° C./75% RH (XRPD, HPLC purity, colour); type: physicochemical; settings: 4 weeks at 40° C./75% RH under ambient light conditions
small intestinal transit = assay: Small Intestinal Transit Rodent Model (charcoal meal); type: in vivo, rat
Method: Following an overnight fast, rats were brought to the laboratory in their home cages and received an i.p. injection of one of the following: […] Control rats received no treatment. The treated rats were placed back in the home cages and after 30 min, were fed a 2 mL charcoal meal via an oral gavage. Small intestinal transit was measured following 15 min test-period. Each rat was placed briefly in a glass chamber with IsoFlo for anesthesia and sacrificed. The stomach and the small intestine were removed and the total length of the small intestine was measured. Transit was then measured as the distance that the charcoal meal had traveled along the small intestine and expressed as % of the total length. Animals were randomly assigned to experimental groups and experiments were performed as illustrated in Table 3. Ondansetron was supplied from APIN Chemicals LTD. […] MCI-225 was provided by Mitsubishi Pharma Corp. All drugs were dissolved in a vehicle of 100% propylene glycol (1,2-Propanediol) by sonicating for 10 min. Propylene glycol was obtained from Sigma Chemical Co. Ondansetron, a 5-HT3-receptor antagonist was dosed i.p. at 1, 5, and 10 mg/kg. […] All doses were delivered in a final volume of 200 μL. Animals in the vehicle control group received 200 μL of 100% Propylene glycol and animals in the normal control group were untreated. Adult male F-344 rats (230-330 g) were used in the study. The rats were housed 2 per cage under standard conditions. The animals were fed a standard rodent diet and food and water were provided “ad libitum”. Rats were allowed to acclimatize to the animal facility for one week prior to the transit experiments. […] The distance traveled by the charcoal meal was quantified as a percent of the small intestinal length, using the following equation: Transit(%)=cm traveled by meal/cm total small intestinal length×100 […] […] Differences between individual dose groups within treatments and comparisons between drug-treated and vehicle-treated groups were determined using an unpaired t test considering that when % is used as a relative unit, t-statistic is relevant. […]

[2] = system: stress-induced accelerated colonic transit; assay: Water avoidance stress (WAS) fecal pellet output, model of increased colonic transit; type: in vivo, rat
Method: Preliminary testing in the water avoidance stress model confirmed that there exists an association between stress and altered colonic motility. Fecal pellet output was measured by counting the total number of fecal pellets produced during 1 hour of WAS. Using the WAS model, the effect of MCI-225 was compared to the effects of ondansetron (5-HT3 antagonist) or nisoxetine (noradrenaline reuptake inhibitor—NARI) to affect fecal pellet output.
Adult male F-344 rats, supplied by Charles River Laboratories and weighing 270-350 g, were used to complete this study. The rats were housed 2 per cage under standard conditions. Following one to two weeks of acclimatization to the animal facility, the rats were brought to the laboratory and handled daily for another week to acclimatize them to laboratory conditions and to the research associate who performed the studies. All procedures used in this study were approved in accordance with facility standards.
All rats underwent sham stress (1-hour in stress chamber without water) for 2-4 consecutive days before undergoing WAS (sham was performed until rats produced 0-1 pellet per hour for 2 consecutive days). At the end of the 1-hour stress period, the fecal pellets were counted and recorded.
WAS causes an acceleration of colonic transit, which can be quantified by counting the number of fecal pellets, produced during the stress procedure. Rats were placed for 1-hour into a stress chamber onto a raised platform 7.5 cm×7.5 cm×9 cm (L×W×H) in the center of a stress chamber filled with room temperature water 8 cm in depth. The stress chamber was constructed from a rectangular plastic tub (40.2×60.2×31.2 cm).
Control drugs for this study were ondansetron and nisoxetine. Ondansetron was supplied from APIN Chemicals LTD. Nisoxetine was supplied by Tocris. MCI-225 was provided by Mitsubishi Pharma Corp. All drugs were dissolved in a vehicle of 100% propylene glycol (1,2-propanediol) by sonicating for a period of 10 minutes. […]
Statistical significance was assessed using one-way ANOVA followed by Tukey post-test. […]

[3] = system: acetic acid-induced colonic hypersensitivity; assay: Visceromotor response to colorectal distension, acetic acid-induced colonic hypersensitivity; type: in vivo, rat
Method: A 10 min recovery was allowed between distensions.
Adult male rats were used in the study.
Ten minute recovery periods were allowed following each distension.
Statistical significance of the treatment groups was assessed using one-way ANOVA followed by Tukey post-test. […] (*) p<0.05, (**) p<0.01, (***) p<0.001

cisplatin-induced emesis = assay: Cisplatin-induced emesis in the ferret; type: in vivo, ferret (Mustela putario furo); settings: 5 mg/kg and 10 mg/kg i.p.
Method: Adult male ferrets (Mustela putario furo) weighing 1200-1880 g were purchased from Triple F Farms (Sayre, Pa.) and housed in individual cages at standardized conditions (12:12 h light/dark cycle and 21-23° C.). Prior to the experiments, the ferrets were allowed a 7-10 day acclimatization period to the animal facility. The ferrets were fed a carnivore diet with free access to food and water throughout the course of the study. The use of the ferret model of emesis and the drug treatment were preapproved in accordance with facility standards. A cisplatin solution was prepared by adding preheated (70° C.) saline to cisplatin powder (Sigma-Aldrich Co.) and stirring or sonicating at 40° C. until dissolved. Following administration of the cisplatin and either MCI-225, ondansetron or vehicle alone, the occurrence of retching and vomiting was monitored for a period of 6 hours. Retching was defined as the number of forceful rhythmic contractions of the abdomen occurring with the animal in characteristic posture, but not resulting in the expulsion of upper gastrointestinal tract contents (Watson et al., British Journal of Pharmacology, 115(1): 84-94 (1994)). […] The latency of the retching or vomiting response and the number of episodes were recorded for each animal and summarized for each experimental group (Wright et al., Infect. Immun., 68(4): 2386-9 (2000)). […]

Compound: 4-(2-fluorophenyl)-6-methyl-2-(piperazin-1-yl)thieno[2,3-d]pyrimidine hydrochloride [MCI-225]
- colour of material surface after storage [1]: gone yellow

Compound: CNCCC(Oc1ccccc1OC)c1ccccc1 (stereo not drawn) [Nisoxetine]
- small intestinal transit (small intestinal transit; rats, 30 mg/kg i.p.): almost completely inhibited
- small intestinal transit (small intestinal transit; rats, 3 or 10 mg/kg i.p.): tendency to decrease
- WAS-induced fecal pellet output during 1 hour ([2]; rats, 3, 10 and 30 mg/kg i.p.): reduced by all doses
- fecal pellets produced during WAS compared to the vehicle treated group ([2]; rats, 10 and 30 mg/kg i.p.): significantly fewer

Compound: Cc1nccn1CC1CCc2c(c3ccccc3n2C)C1=O (stereo not drawn) [Ondansetron]
- small intestinal transit (small intestinal transit; rats, 1, 5 or 10 mg/kg i.p.): significant reduction
- stress-induced fecal pellet output during 1 hour of WAS ([2]; rats, 1, 5 and 10 mg/kg i.p.): dose-dependent inhibition
- responses to moderate (30 mmHg) and high (60 mmHg) intraluminal pressure ([3]; rats, 10 mg/kg i.p. (highest dose)): did not abolish the responses
- behavioral activity of the rats ([3]; rats, 1, 5 or 10 mg/kg i.p.): No significant changes
- number of abdominal contractions (visceromotor response to colorectal distension) ([3]; rats, 1, 5 or 10 mg/kg i.p., all distension pressures, vs vehicle): dose-dependent decrease
- latency of the first emetic response following cisplatin treatment (cisplatin-induced emesis): increase in the latency
- number of emetic events induced by cisplatin (cisplatin-induced emesis): dose-dependently reduced
